Data reported in patent publication US20220142934A1, “COMBINATION THERAPEUTICS AND METHODS FOR THE TREATMENT OF NEURODEGENERATIVE AND OTHER DISEASES” (Aphios Corporation, priority 2020, published 2022).

Key:
prostate cancer cells = details: by modulating PKC delta translocation and preventing TNF-alpha release; cited from earlier work
ADAM10 = ADAM10 (alpha-secretase) expression in SH-SY5Y cells; type: cell-based; details: each agent alone or in combination
Text: Therefore, Bryostatin-1 may increase a-secretase processing through 2 independent mechanisms: (i) activation of PKCs which stimulate secretase; and (ii) increased expression of a-secretase.

[1] = test system: SH-SY5Y neuroblastoma cells; test: sAPPα formation/release in SH-SY5Y cells (6E10 western blot, densitometry); type: cell-based; details: Bryostatin-1 alone
Description: Cells were treated with RA, Bryostatin-1 (10^−9M)+RA, Bryostatin-1 (10^−10M) RA+Bryostatin-1 (10^−10M) for 3 h. Representative western blots show sAPPα recovered from culture medium.

[2] = test system: Mouse strain B6C3-Tg carrying mutant Swedish Amyloid precursor protein (sweAPP) and PSI (presenilin-l) genes; test: Water maze studies in Alzheimer's disease mouse model; type: in vivo
Text: Mouse strain B6C3-Tg carrying mutant Swedish Amyloid precursor protein (sweAPP) and PSI (presenilin-l) genes associated with early onset Alzheimer's disease were subjected to water maze tests at 5-6 months of age.

**Q.** With `CCC/C=C/C=C/C(=O)O[C@H]1/C(=C/C(=O)OC)C[C@H]2C[C@H]([C@@H](C)O)OC(=O)C[C@H](O)C[C@@H]3C[C@H](OC(C)=O)C(C)(C)[C@](O)(C[C@@H]4C/C(=C/C(=O)OC)C[C@H](/C=C/C(C)(C)[C@]1(O)O2)O4)O3` [Bryostatin-1] as the compound, how does the phorbol ester-induced apoptosis (prostate cancer cells) read?
**A.** inhibits

**Q.** What about the “expression of ADAM10 (the major form of alpha-secretase)” value (ADAM10) of the same compound?
**A.** significantly increase

**Q.** And the sAPPα formation ([1]; 10^−9M, SH-SY5Y cells)?
**A.** increased

**Q.** And the “sAPPα recovered from culture medium” value ([1]; 10^−10M, 3 h, SH-SY5Y cells, vs control)?
**A.** significantly increased

**Q.** What about the activity of alpha-secretase ([1]; SH-SY5Y neuroblastoma cells) of the same compound?
**A.** potently stimulate

**Q.** What about the “protection against Alzheimer's disease mediated memory loss (water maze)” value ([2]; 5 micrograms/mouse on alternative days orally in an oil formulation, mice 5-6 months of age, vs control animals) of the same compound?
**A.** significant protection

**Q.** And the “memory and cognition in AD model” value ([2]; mouse, in vivo)?
**A.** enhance memory and cognition
